Assay results: patent US8399518B2, “Administration of 3,5-diiodothyropropionic acid for stimulating weight loss, and/or lowering triglyceride levels, and/or treatment of metabolic syndrome” (University of Arizona Office of Technology Transfer, priority 2007, dated 2013)

Test: Human clinical study with DITPA: weight loss in patients with a history of congestive heart failure
Format: in vivo
Settings: maximum 26 weeks; for patients who experienced a weight loss of 2% or more: DITPA or placebo (2:1) orally, 90 mg/day increased to 180 or 360 mg/day
Protocol: Fifty-four patients with a history of congestive heart failure were administered DITPA or placebo in a 2:1 randomized and double-blinded manner for a maximum of 26 weeks. […] The patients in the study were administered DITPA orally twice per and the dose began at 90 mg/day and increased to 180 mg/day after two weeks. In half of the DITPA patients, the dose was increased further to 270 mg/day after two weeks, and then to 360 mg/day. Patients were randomized 1:1:1 to DITPA 180 mg/day, DITPA 360 mg/day, or placebo.

In the case of `O=C(O)CCc1cc(I)c(Oc2ccc(O)cc2)c(I)c1` [DITPA, 3,5-diiodothyropropionic acid], the “decrease in weight, overweight patients versus patients of normal body weight” value (oral DITPA 180 or 360 mg/day) is reported as “greater decrease in weight in overweight patients than those of normal body weight”, the “patients who experienced a weight loss of 2% or more” value (patients with body mass index greater than 25) is reported as 71.05% and the “patients who experienced a weight loss of 2% or more” value (patients with body mass index less than or equal to 25) is reported as 37.5%.
